Measurements reported in patent US9776987B2, “Amide derivatives for GPR119 agonist” (CHONG KUN DANG PHARMACEUTICAL CORP., priority 2013, dated 2017).
Converted amounts (≈) assume the structure as drawn. Read-outs that look alike come from different tables or passages of the source.

Tests used:
Male C57/6J Jms mice = assay: Glucose tolerance test in normal mouse; assay type: in vivo
Protocol: 1. Method of Glucose Tolerance Test
Male C57/6J Jms mice of 6-7 weeks of age were fasted for 16 hours before the start of glucose tolerance test. […]
Before compound administration, that is, at 0 hour, whole blood glucose level was determined using a Glucometer (ACCU-CHEK, Roche). At 30 minutes after compound administration, whole blood glucose level was determined once again, and 20% glucose (2 g/kg/10 mL) was administered orally. Whole blood glucose level was determined at 20, 40, 60, 80, and 120 minutes after 20% glucose administration. Whole blood glucose level vs. Time was graphicalized. Area under the curve (AUC) of whole blood glucose level was obtained using GraphPad Prism 4.0. The effect of glucose tolerance was adjudged with the corrected area under the curve (cAUC), on which the base value of glucose area under the curve was excluded.

[1] = tested on: Glucagon-Like Peptide-1 (GLP-1) secretion; assay: Secretion capacity test of glucagon-like peptide-1 (GLP-1); assay type: in vivo, mouse; settings: normal mice, oral, AUC of plasma GLP-1 level, vehicle (water) 100%
Protocol: 3. Secretion Capacity Test of Glucagon-Like Peptide-1 (GLP-1)
Male C57/6J Jms mice of 6-7 weeks of age were fasted for 16 hours before the start of the test of secretion capacity test of GLP-1. The experimental animal groups consist of: a vehicle group (100% DI water); and test groups administered with each compounds (10 mg/kg). Blood samples were taken from the orbital vein of the test animals. Plasma GLP-1 level was determined using a GLP-1 ELISA kit (Total GLP-1 ELISA, ALPCO). With the base of 30 minutes before the compound administration, each blood samples were taken at 30, 60, 120 and 210 minutes after the compound administration. 30% Glucose solution (3 g/kg/10 mL) was administered orally at 5 minutes before each blood-collecting. From the collected blood, only plasma was taken using a centrifuge (12000 rpm, 15 minutes), and stored at −80° C. before analysis. Plasma GLP-1 level vs. Time was graphicalized. Area under the curve (AUC) of plasma GLP-1 level was obtained using GraphPad Prism 4.0. All the results were expressed as mean±SD, and each test groups and the control group were compared using one-way ANOVA test (Dunnett's test, *p<0.05, **p<0.01, ***p<0.001) to adjudge the effects of each test groups.

[2] = Solubility test of GPR 119 agonist compounds (Nephelostar); assay type: physicochemical; settings: aqueous with cosolvent or surfactant or cyclodextrin, kinetic from dmso stock
Protocol: 1. Method of Solubility Test
Each test compounds were dissolved in 5% DMSO aqueous solution as a solvent at several concentrations. When a laser was irradiated to the solution, the particles, which are not dissolved in the solvent, scatter the light. The level of the scattered light is dependent to the number of the particles, so the solubility of the test compound in the solution can be determined using the relationship. As the test equipment, Nephelostar was used.

human GPR119 receptor = molecular target: T1, human GPR119 receptor (Homo sapiens, UniProt Q8TDV5); assay: Activity test for human GPR119 receptor (GeneBLAzer T-Rex GPR 119 CHO-K1 DA cells); assay type: cell-based
T1 construct: host or cells: GeneBLAzer T-Rex GPR 119 CHO-K1 DA cells (CHO-K1)
T1 sequence (Q8TDV5 1-335): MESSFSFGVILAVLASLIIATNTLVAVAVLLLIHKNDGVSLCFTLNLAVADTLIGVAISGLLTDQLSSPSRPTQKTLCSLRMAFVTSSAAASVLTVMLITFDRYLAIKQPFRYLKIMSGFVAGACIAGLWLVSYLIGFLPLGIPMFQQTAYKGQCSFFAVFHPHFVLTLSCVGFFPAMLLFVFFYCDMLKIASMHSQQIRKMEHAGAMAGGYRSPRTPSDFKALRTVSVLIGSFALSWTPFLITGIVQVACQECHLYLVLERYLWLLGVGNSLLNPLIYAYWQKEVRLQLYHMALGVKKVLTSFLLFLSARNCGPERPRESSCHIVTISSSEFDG
How it was run: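 Compounds at 0.1, 1 and 10 μM, in duplicate, on GeneBLAzer T-Rex GPR119 CHO-K1 DA cells for 5 h, then 2 h with colour-development reagent before fluorescence reading. Test-to-vehicle-control ratio converted to EC50; mean±SD.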

solubility ([2]; pH 2, 5% DMSO aqueous solution, read-out: Solubility pH 2): > 279 µg/mL
solubility ([2]; pH 4, 5% DMSO aqueous solution, read-out: Solubility pH 4): > 279 µg/mL
solubility ([2]; pH 6, 5% DMSO aqueous solution, read-out: Solubility pH 6): > 279 µg/mL
solubility ([2]; pH 8, 5% DMSO aqueous solution, read-out: Solubility pH 8): 166 µg/mL (≈ 297 µM)
EC50 (human GPR119 receptor; human GPR119 receptor expressing CHO-K1 cells, 5 hours treatment, read-out: hGPR119 EC50): 13 nM
activity for human GPR119 receptor (in words) (human GPR119 receptor; judgement on the EC50 values of Table 11): excellent activity
Structure (SMILES): CCC(F)(CC)CN1CCC(COc2ccc(-c3ccc(C(=O)N4C[C@H](O)C[C@@]4(C)C(N)=O)c(F)c3)nc2)CC1 [Compound 1291, (2S,4R)-1-(4-(5-((1-(2-ethyl-2-fluorobutyl)piperidin-4-yl)methoxy)pyridin-2-yl)-2-fluorobenzoyl)-4-hydroxy-2-methylpyrrolidin-2-carboxamide]
Decrease % of AUC at 2.5 mg/kg (Male C57/6J Jms mice; 2.5 mg/kg): 15.7%
Decrease % of AUC at 5 mg/kg (Male C57/6J Jms mice; 5 mg/kg): 38.0%
GLP-1 secretion (%) at 10 mg/kg of dose [1]: 347%
